# Measurements from patent US10016480B2, “Peptide-based methods for treating pancreatic cancer” (The United States of America, as represented by the …, priority 2014, dated 2018).
# No end group written: not given here.
# Assay: Serum stability
# Type: in vitro ADME
sequence,measurement,value
"FAKKFAKKFK [Peptide B, Phe-Ala-Lys-Lys-Phe-Ala-Lys-Lys-Phe-Lys]",stability in serum,stable in serum
